ChEMBL document CHEMBL1201862, “PubChem BioAssay data set” (2004)
Active and inactive are the calls of the source.

How the values were obtained:
[1] = molecular target: FAD-linked sulfhydryl oxidase ALR (Homo sapiens, UniProt P55789); experiment: ALR-catalysed DTT oxidation blockers – biochemical, H2O2 detection, luminescence, cherry-pick, dose response (AID 493248)
[2] = molecular target: T1, Heat shock factor protein 1 (Mus musculus, UniProt P38532); experiment: enhancement of HSF1-driven luciferase signal – cell-based, NIH3T3, luminescence, dose retest, confirmation (AID 435004); type: functional;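 further: stress induced by proteasome inhibitor MG132 added 30 min after compound; luciferase reporter driven by HSF1 response element in NIH3T3 cells; actives raise luminescence as potentiators of the MG132 stress response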
T1 sequence (P38532 whole entry): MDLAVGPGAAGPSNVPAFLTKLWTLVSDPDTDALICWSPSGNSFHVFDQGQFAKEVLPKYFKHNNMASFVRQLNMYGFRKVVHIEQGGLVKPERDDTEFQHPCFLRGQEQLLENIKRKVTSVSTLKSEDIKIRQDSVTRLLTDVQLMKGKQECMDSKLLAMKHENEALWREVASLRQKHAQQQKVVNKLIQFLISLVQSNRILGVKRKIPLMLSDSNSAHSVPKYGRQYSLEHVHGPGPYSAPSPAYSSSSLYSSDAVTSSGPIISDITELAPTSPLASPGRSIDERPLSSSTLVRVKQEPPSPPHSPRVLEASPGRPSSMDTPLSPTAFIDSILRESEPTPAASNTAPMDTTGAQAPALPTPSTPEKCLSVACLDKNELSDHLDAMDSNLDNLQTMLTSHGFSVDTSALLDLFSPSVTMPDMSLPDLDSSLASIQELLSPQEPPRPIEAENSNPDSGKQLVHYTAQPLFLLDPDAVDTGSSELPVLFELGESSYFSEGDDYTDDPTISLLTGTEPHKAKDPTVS

[3] = viability of PTEN-deleted HCT116 cells – cell-based, HCT116 PTEN knockout, dose response (AID 1047); type: functional;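 further: HCT116 colon tumor cells with PTEN knocked out; cells exposed to compound for 60 hours before readout; potency for loss of cell viability measured by luminescence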
[4] = viability of HCT116 lacking mutant beta-catenin – cell-based, human colon tumor, dose response (AID 1045); type: functional;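 further: HCT116 colon tumor cells with beta catenin knocked out; cells exposed to compound for 60 hours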
[5] = alpha-synuclein stem-loop luciferase translation blockers – H4 neuroglioma cells, luminescence, confirmation (AID 1988); type: functional, cell-based
[6] = luciferase reporter signal suppression in cells – H4 neuroglioma cells, luminescence, dose response (AID 1990); type: functional, cell-based
[7] = Luminescence Cell-Based Dose Response HTS to Identify Inhibitors of 5'UTR Stem-Loop Driven Prion Protein mRNA Translation in H4 Neuroglioblastoma Cells. [Related pubchem assays: 1827 (Project Summary), 1813 (Primary HTS)]; type: functional
[8] = Luminescence Cell-Based Dose Retest to Confirm Inhibitors of Cancer Stem Cells. [Related pubchem assays (depositor defined):AID2717, AID2721]; type: functional; settings: Homo sapiens
INS1 = experiment: INS-1E survival protection against cytokine death – cell-based, luminescence, retest, dose response (AID 449756); type: functional; settings: Rattus norvegicus;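 further: cell death triggered by IL-1 beta plus TNF-alpha plus IFN-gamma mixture; protective hits raise ATP signal compared with cytokine alone wells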
[9] = molecular target: Heat shock protein HSP 90-alpha (Homo sapiens, UniProt P07900); type: functional, organism-based
[10] = non-specific 3'UTR reporter inhibition in Clone20-Shn3RL – cell-based, Renilla luciferase, cherry-picked, counter-screen for Shn3 inhibitor project, dose response (AID 624133); type: functional
Protein skinhead-1 = molecular target: T2, Protein skinhead-1 (Caenorhabditis elegans, UniProt P34707); type: functional
T2 sequence (P34707 whole entry): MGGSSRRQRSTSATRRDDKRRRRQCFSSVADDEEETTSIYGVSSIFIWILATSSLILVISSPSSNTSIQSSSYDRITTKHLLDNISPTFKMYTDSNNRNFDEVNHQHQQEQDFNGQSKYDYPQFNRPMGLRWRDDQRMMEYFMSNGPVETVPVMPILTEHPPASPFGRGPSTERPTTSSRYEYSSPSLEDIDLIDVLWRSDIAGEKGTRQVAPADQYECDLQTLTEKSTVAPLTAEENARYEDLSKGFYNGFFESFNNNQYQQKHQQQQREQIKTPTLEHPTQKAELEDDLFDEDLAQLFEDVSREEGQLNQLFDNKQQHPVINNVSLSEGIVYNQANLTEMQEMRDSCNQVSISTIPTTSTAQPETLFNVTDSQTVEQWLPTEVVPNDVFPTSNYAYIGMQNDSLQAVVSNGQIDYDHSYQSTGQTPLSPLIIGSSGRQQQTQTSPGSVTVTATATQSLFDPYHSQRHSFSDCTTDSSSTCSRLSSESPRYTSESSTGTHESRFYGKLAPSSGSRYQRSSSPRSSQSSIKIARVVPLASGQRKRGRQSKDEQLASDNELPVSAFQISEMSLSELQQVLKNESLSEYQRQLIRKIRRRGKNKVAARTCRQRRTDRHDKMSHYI

H9c2 = experiment: cells; type: functional, cell-based; settings: Rattus norvegicus, H9c2, Myocardium;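 further: confirmatory concentration-response retest of ultra-high-throughput screening hits for modulation of myocardial damage; cell death induced by hydrogen peroxide oxidative stress; compound pretreatment for 60 min then peroxide exposure for 2 h; potency is for protecting the cells against peroxide damage rather than for killing them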
[11] = Luminescence Cell-Based Dose Confirmation HTS to Identify Inhibitors of Platelet Dense Granule Release. [Related pubchem assays: 1663 (Primary HTS), 1678 (Summary of Project)]; type: functional
[12] = molecular target: Luciferin 4-monooxygenase (Photinus pyralis, UniProt P08659); experiment: inhibition of purified Photinus pyralis luciferase – biochemical, luminescence, dose response (AID 1891)
[13] = viability of uninfected HEp-2 cells – cell-based, HTS, cytotoxicity control for RSV inhibitor project, dose response (AID 2410); type: functional; settings: human respiratory syncytial virus
Cytochrome P450 2C19 = Cytochrome P450 2C19 (Homo sapiens, UniProt P33261); experiment: Cytochrome panel assay with activity outcomes. Panel member name: p450-cyp2c19 Compounds with AC50 equal or less than 10 uM are considered active; type: functional
Cytochrome P450 3A4 = Cytochrome P450 3A4 (Homo sapiens, UniProt P08684);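 further: CYP3A4 tested as one member of a cytochrome P450 panel screen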
[14] = NIH3T3 cell viability loss – ATP luminescence, mouse fibroblasts, counter-screen, dose response (AID 2010); type: functional, cell-based;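 further: cells exposed to compound for about 90 hours before reading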
[15] = Trypanosoma cruzi growth suppression in host cells – NIH3T3 host cells, beta-gal luminescence, confirmation (AID 2044); type: functional, cell-based;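 further: intracellular parasites grown in NIH/3T3 mouse fibroblasts as host cells; luminescent beta-galactosidase reporter signal from transgenic T. cruzi replicating inside host cells; inhibitors lower the luminescence signal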

Chain of Luciferin 4-monooxygenase (P08659 whole entry): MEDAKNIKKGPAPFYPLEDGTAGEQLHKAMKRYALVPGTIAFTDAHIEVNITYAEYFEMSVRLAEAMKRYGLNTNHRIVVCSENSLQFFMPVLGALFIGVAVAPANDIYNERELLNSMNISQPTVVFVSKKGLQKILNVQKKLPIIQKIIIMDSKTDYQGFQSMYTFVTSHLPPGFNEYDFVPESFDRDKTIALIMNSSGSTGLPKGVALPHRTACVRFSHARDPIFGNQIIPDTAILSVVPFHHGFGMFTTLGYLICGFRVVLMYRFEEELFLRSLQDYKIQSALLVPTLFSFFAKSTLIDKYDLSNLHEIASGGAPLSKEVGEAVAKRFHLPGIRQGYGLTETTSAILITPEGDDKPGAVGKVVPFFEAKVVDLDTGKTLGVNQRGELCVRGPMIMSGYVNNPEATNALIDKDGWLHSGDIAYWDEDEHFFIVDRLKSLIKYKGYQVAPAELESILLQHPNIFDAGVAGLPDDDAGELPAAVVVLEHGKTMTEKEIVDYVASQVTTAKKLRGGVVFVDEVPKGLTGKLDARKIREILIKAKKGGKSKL
Chain of FAD-linked sulfhydryl oxidase ALR (P55789 whole entry): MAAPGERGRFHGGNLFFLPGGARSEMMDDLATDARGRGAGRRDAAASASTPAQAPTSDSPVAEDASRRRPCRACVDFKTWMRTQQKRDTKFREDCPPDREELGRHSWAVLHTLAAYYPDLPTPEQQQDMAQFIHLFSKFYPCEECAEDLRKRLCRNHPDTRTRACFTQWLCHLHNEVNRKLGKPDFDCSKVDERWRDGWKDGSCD
Chain of Cytochrome P450 2C19 (P33261 whole entry): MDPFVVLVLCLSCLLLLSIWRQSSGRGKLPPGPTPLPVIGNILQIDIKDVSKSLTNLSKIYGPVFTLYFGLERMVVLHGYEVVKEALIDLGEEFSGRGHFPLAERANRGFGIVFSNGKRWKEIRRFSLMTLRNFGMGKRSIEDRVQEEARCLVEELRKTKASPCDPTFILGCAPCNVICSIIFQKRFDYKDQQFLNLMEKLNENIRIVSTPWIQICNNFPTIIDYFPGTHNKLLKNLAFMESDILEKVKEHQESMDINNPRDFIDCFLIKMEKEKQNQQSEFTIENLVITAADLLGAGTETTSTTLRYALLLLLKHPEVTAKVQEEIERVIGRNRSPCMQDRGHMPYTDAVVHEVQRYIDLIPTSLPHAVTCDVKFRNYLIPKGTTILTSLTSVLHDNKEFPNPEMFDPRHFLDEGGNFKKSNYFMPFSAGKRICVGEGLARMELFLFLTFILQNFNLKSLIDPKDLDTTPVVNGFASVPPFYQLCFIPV
Chain of Cytochrome P450 3A4 (P08684 whole entry): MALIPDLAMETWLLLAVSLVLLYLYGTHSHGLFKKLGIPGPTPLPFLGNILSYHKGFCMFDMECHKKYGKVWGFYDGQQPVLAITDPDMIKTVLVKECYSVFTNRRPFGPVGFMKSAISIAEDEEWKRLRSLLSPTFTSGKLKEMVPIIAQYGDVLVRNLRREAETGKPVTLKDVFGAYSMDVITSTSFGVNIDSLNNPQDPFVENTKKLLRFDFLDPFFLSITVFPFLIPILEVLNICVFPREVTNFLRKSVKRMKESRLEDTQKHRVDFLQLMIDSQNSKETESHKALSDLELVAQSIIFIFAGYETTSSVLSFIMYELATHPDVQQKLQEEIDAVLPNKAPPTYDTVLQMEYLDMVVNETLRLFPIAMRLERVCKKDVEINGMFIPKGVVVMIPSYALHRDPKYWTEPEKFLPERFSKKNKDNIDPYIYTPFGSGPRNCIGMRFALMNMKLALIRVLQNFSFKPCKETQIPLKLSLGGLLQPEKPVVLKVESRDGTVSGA

Cc1ccc(NC2c3ncccc3C(=O)N2C2CCCCC2)cc1 (configuration not stated)
AC50 [1]: 2.07 µM (active)
EC50 [2]: > 260 µM (inactive)

Cc1cc(S(=O)(=O)NCc2ccccc2)ccc1OCC(=O)Nc1cccc([N+](=O)[O-])c1
EC50 [3]: 13 µM (active)
EC50 [4]: 14.9 µM (active)

Cc1ccccc1Nc1nc(N)nc(CSc2ccccc2)n1
EC50 [2]: 19.1 µM (active)

CCOC(=O)c1c(COc2ccccc2)oc2ccc(O)cc12
EC50 [2]: > 260 µM (inactive)

COc1ccc(-c2csc(/C(C#N)=C/Nc3cc4oc5ccccc5c4cc3OC)n2)cc1
EC50 [5]: > 120 µM (not active)
EC50 [6]: > 120 µM (not active)
EC50 [7]: 91.7 µM (active)

Cc1cccc(Nc2nc(N)c([N+](=O)[O-])c(N3CC(C)CC(C)C3)n2)c1 (configuration not stated)
AC50 [8]: 6.36 µM (active)
EC50 [3]: 13.1 µM (active)
AC50 (INS1): 8.89 µM (active)
AC50 [9]: 7.38 µM (active)
EC50 [4]: 15.1 µM (active)

CN(CC(=O)NCc1ccc2c(c1)OCO2)S(=O)(=O)c1ccc(Br)s1
AC50 [10]: 28.2 µM (active)

COc1cccc(-c2noc(-c3ccoc3C)n2)c1
IC50 (Protein skinhead-1): 86.4 µM (inactive)

O=C1/C(=C/c2cccnc2)CCC/C1=C\c1cccnc1
EC50 [3]: 1.43 µM (active)
AC50 (INS1): 3.04 µM (active)
EC50 [4]: 1.09 µM (active)

COc1ccc(C2=Nn3c(nnc3-c3ccccc3)SC2)cc1OC
EC50 [5]: 0.318 µM (active)
EC50 [6]: 54.9 µM (active)
EC50 [7]: > 120 µM (not active)

O=C(Nc1ccc2c(c1)CN(Cc1ccco1)CC2)C1CCCO1 (configuration not stated)
IC50 (Protein skinhead-1): > 100 µM (inactive)

CC(=O)Nc1ccc(S(=O)(=O)NCc2ccc3c(c2)cc(C)n3C)cc1
IC50 (Protein skinhead-1): > 100 µM (inactive)

O=S(=O)(NC1CCCCCC1)c1ccc(Br)s1
AC50 [9]: 17.2 µM (active)

C=CCn1c(COc2ccc(CC)cc2)nnc1SC/C(O)=C(\C#N)c1nc2ccccc2[nH]1
EC50 [2]: > 260 µM (inactive)

Fc1ccc(CSc2ccc3nnc(-c4cccnc4)n3n2)cc1
IC50 (H9c2): > 79 µM (inactive)

Cc1nn(-c2ccccc2)c(N2CCCC2)c1/C=N/NC(=O)c1cc(-c2ccccn2)nc2ccccc12
IC50 (H9c2): > 79 µM (inactive)

Cn1c(-n2c(CCCN3C(=O)c4ccccc4C3=O)nc3ccccc3c2=O)nc2ccccc21
IC50 (H9c2): 15.3 µM (active)

CCOC(=O)N1CCN(C(=O)CSc2nc(O)c3cnn(-c4ccc(C)cc4)c3n2)CC1
IC50 (H9c2): 31.6 µM (inactive)

Clc1ccc(Cn2cc(/C=N/n3cnnc3)c3ccccc32)cc1
EC50 [5]: 13.1 µM (active)
EC50 [6]: 14.6 µM (active)
EC50 [7]: > 120 µM (not active)

COc1ccc(-c2cc(=O)oc3cc(OCC(=O)N(C)C)ccc23)cc1
IC50 (Protein skinhead-1): > 100 µM (inactive)

COc1ccc(Cc2nnc(NC(=O)c3c(-c4ccccc4)noc3C)s2)cc1
EC50 [11]: > 112 µM (not active)
EC50 [12]: > 112 µM (not active)

COc1cccc(C2C([N+](=O)[O-])=C(N)Oc3c2c(=O)oc2ccccc32)c1 (configuration not stated)
EC50 [2]: > 260 µM (inactive)

Cc1cccc(-[n+]2c(-c3cccc(Br)c3)[nH]c3nc4ccccc4nc32)c1
EC50 [5]: 10.5 µM (active)
EC50 [6]: 13.2 µM (active)
EC50 [7]: 13.7 µM (active)

Cc1ccc(C)c(Nc2nc3ccc(C)cc3n3cnnc23)c1
EC50 [5]: > 120 µM (not active)
EC50 [6]: 14.9 µM (active)
EC50 [7]: > 120 µM (not active)

Cc1ccc(C)c(NC(=O)/C(C#N)=C/c2ccc[nH]2)c1
IC50 (Protein skinhead-1): > 100 µM (inactive)

CC(=C/c1ccccc1)/C=N/n1cnnc1
EC50 [5]: 13.5 µM (active)
EC50 [6]: 11 µM (active)
EC50 [7]: 20.4 µM (active)

CC(OC(=O)Cn1[nH]c(=O)c2ccccc2c1=O)C(=O)Nc1ccc(F)cc1Cl (configuration not stated)
IC50 (H9c2): > 79 µM (inactive)

C=Cn1ccnc1P(=S)(c1ccc2c(c1)c1ccccc1n2CC)c1nccn1C=C
AC50 [8]: 1.5 µM (active)
EC50 [3]: 4.12 µM (active)
EC50 [4]: 4.28 µM (active)

Nc1nnc(SCC(=O)N2CCN(c3cccc(Cl)c3)CC2)n1-c1ccccc1
IC50 (Protein skinhead-1): > 100 µM (inactive)

O=C(c1ccccc1Br)N1CCN(c2ccccc2)CC1
EC50 [2]: > 260 µM (inactive)

Cc1ccc2nc(NC(=O)/C=C/c3ccc4c(c3)OCO4)sc2c1
EC50 [3]: 4.16 µM (active)
AC50 (INS1): 3.6 µM (active)
EC50 [4]: 4.66 µM (active)

CN(CCCN1CCOCC1)C(=O)c1cc(COc2cccc(C(F)(F)F)c2)on1
IC50 (Protein skinhead-1): > 100 µM (inactive)

Cc1ccc(C2=NC(C)(C)N=C2SCC(=O)Nc2ccc(Cl)cc2)cc1
AC50 [9]: 15.1 µM (active)
CC50 [13]: 30.5 µM (active)

Cc1ccc(CNC(=O)CSc2ccsc2[N+](=O)[O-])cc1
EC50 [2]: 31.5 µM (active)

O=C(Nc1ccc(F)cc1)C1CCN(c2ncnc3c2nc2n3CCCCC2)CC1
EC50 [5]: 15.8 µM (active)
EC50 [6]: 17 µM (active)
EC50 [7]: 16.9 µM (active)

Cn1c(CNc2cccc(Cl)c2)nnc1SCC#N
EC50 [2]: > 260 µM (inactive)

O=C(CCc1nc(O)c2ccccc2n1)NNC(=O)c1cccc(Cl)c1
IC50 (H9c2): > 79 µM (inactive)

COc1ccc(Cc2nnc(O)c3ccccc23)cc1OC
AC50 (Cytochrome P450 2C19): 31.6 µM (inconclusive)
AC50 (Cytochrome P450 3A4): 22.4 µM (inconclusive)
IC50 (H9c2): 7.28 µM (active)

C(=N\c1nc2ccccc2[nH]1)/c1cccs1
EC50 [11]: > 112 µM (not active)
EC50 [12]: 16.2 µM (active)

Cn1c(-c2ccc(Cl)cc2)cnc1N
IC50 (H9c2): > 79 µM (inactive)

CCOc1cc(CNCCSc2nnnn2C)cc(Br)c1OCc1ccccc1F
EC50 [14]: > 60 µM (not active)
IC50 (Protein skinhead-1): 24.1 µM (active)
EC50 [15]: 2.13 µM (active)

COc1ccc(C2=NN(C(=O)CSC3=NN4CCCC(=O)N=C4S3)C(c3cccc(OC)c3OC)C2)cc1 (configuration not stated)
EC50 [11]: > 112 µM (not active)
EC50 [12]: > 112 µM (not active)

O=C1/C(=C/c2ccccc2)CCCc2ccccc21
IC50 (Protein skinhead-1): 17.9 µM (active)

CSc1nc2sc(-c3ccccc3)cc2c(=O)n1N
EC50 [11]: < 0.701 µM (active)
EC50 [12]: 0.191 µM (active)

O=C(CN1CCCC1)Nc1sc2c(c1C(=O)Nc1ccc(Br)cc1)CCC2
IC50 (Protein skinhead-1): > 100 µM (inactive)

Cc1cccc(NC(=O)CN2CCC(C(=O)c3ccc4c(c3)OCCO4)CC2)c1
EC50 [11]: > 112 µM (not active)
EC50 [12]: > 112 µM (not active)
